# Results from patent publication US5759836A, “Osteoarthritis-associated inducable isoform of nitric oxide synthetase” (priority 1995, dated 1998).
# Where “and” joins values, the source holds several entries; their conditions need not be identical. Identical values can stand only once. Entries after “also recorded” stand apart in the source; their conditions may differ.
# Key:
# COX-2 = biological target: T1, COX-2 (Mus musculus, UniProt Q05769); assay type: cell-based, murine; conditions: 3 mM
# T1 construct: Cells were incubated with LPS (1 μg/ml) for 16 h to induce COX-2; endogenous in cells; host or cells: RAW 264.7 murine macrophages, LPS-induced
# T1 sequence (Q05769 18-604): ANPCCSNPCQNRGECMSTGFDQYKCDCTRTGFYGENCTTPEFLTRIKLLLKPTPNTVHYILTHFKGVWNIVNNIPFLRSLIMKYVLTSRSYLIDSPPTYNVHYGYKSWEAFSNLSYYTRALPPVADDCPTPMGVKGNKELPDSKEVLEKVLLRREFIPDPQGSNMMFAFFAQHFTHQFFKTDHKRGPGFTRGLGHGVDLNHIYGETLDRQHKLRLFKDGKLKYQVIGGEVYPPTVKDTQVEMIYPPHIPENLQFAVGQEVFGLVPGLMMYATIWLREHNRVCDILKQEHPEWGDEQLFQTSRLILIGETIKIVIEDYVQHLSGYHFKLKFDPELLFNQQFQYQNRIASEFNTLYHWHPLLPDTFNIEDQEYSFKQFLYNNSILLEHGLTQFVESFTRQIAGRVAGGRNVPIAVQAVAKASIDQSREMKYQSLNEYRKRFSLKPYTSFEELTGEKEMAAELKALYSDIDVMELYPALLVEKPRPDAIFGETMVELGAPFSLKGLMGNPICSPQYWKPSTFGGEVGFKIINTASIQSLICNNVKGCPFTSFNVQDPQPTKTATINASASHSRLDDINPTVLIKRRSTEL
# OA-NOS [1] = assay: Nitrite release by OA-affected articular cartilage, ex vivo organ culture; assay type: cell-based, human
# iNOS [2] = assay: Nitrite accumulation in LPS-stimulated RAW 264.7 murine macrophages (Griess method); assay type: cell-based; conditions: for further inhibition of nitrite accumulation above that observed at 3 mM: suprapharmacological
# Description: Effects of NSAIDs on Nitrite Accumulation. […] The expression and activity of iNOS were monitored by estimation of the stable end-product: nitrites.
# concentrations of NSAIDs for 2 h followed by addition of 100 ng/ml of LPS
# After 16-18 h of incubation, the medium was used to estimate the
# accumulation of nitrite by the Greiss method (Green et al., Anal Biochem.
# (§1) The specific activity of iNOS was determined in cellfre
# (§2) extracts at a given time period as described. The nitrite and specific
# activity data are representative of mean ± SD value, as determined by
# student t test, for 10 and 4 independent experiments, respectively. The p
# values described are compared with LPSstimulated cells. […]
# iNOS [3] = assay: In vitro iNOS catalytic activity in cell-free extracts preincubated with drug (L-[3H]-arginine to L-[3H]-citrulline); assay type: biochemical, murine; conditions: 20 min preincubation
# NF-κB = conditions: cited from earlier work
# OA-NOS [4] = assay: Sensitivity of OA-NOS to agents (Table 3 comparison)
# iNOS [5] = assay: iNOS expression in stimulated rat chondrosarcomas; assay type: cell-based
# Description: NSAIDs were tested in: (FIG. 5A) rat chondrosarcomas stimulated with LPS, and (FIG. 5B) unstimulated OA cartilage (n=3).
# iNOS [6] = assay: Radiolabelling of iNOS by acetyl-labelled aspirin in RAW 264.7 cells, SDS-PAGE; assay type: biochemical, murine; conditions: radiolabelled aspirin, 30 minutes
# Description: Unstimulated and LPS stimulated murine macrophage (RAW 264.7) cells were incubated with radiolabelled aspirin (acetyl group labelled) as described by Lecomte et al. (J. Biol. Chem. 269:13207-13215, 1994). After 30 minutes, the extracts were run on an SDS-PAGE gel and analyzed by phosphoimager. […] The intensity of label (^14 C) is increased, where iNOS synthesis was induced by LPS.
# However, the possibility that inhibition of iNOS catalytic activity may be due to acetylation of cofactors/precursors of iNOS has not been ruled out.
# COX = conditions: cited from earlier work
# iNOS [7] = assay: Specific activity of iNOS in cell-free extracts of RAW 264.7 cells exposed to drug during LPS induction; assay type: cell-based, murine
# Description: Assays for iNOS in Cell-Free Extracts. […] The reaction mixture for iNOS assay (in cell-free extracts) consists of Tris […] (pH 7.8); BSA 1 mg/ml; DTT 1 mM; CaCl2, 2 mM; FAD 10 μM; BH4 10 μM; L-arginine 30 μM; NADPH 1 mM. The assay mixture for cNOS consists of Tris 50 mM (pH 7.8); L-arginine 50 μM; calmodulin 10 μg/ml; BH4 10 μM; CaCl2 2 mM; NADPH 100 μM. RAW 264.7 cells were induced with LPS in the presence and absence of NSAIDs for 16-18 h. […] Cells were re-pelleted at 4° C. and resuspended in Tris buffer (10 mM, pH 7.4) containing 1 mg/ml each chymostatin, antipain, leupeptin and pepstatin, 1 mM DTT and 1 mM PMSF. Cells were lysed in a Polytron PT 1200 homogenizer (Kinematica AG, Switzerland) after 3 cycles of rapid freeze-thawing. The lysate was centrifuged at 16,000 rpm for 60 min at 4° C., and the supernatants were used as cell-free extracts. […] After 20 min the assays were terminated by heating the reaction mixture at 90° C. for 5 min. The precipitates were removed by centrifuging at 15,000 rpm for 20 min. Ten microliters (≈50,000 cpm) of the supernatant was spotted on activated Avicel TLC plates (Analtech, Newark, Del.). The TLC plates were developed in a solvent system consisting of ethanol:water:ammonia (80:16:4). Quantitation of the spot for L-[^3 3H]-citrulline was performed by a Bioscan System 200 Imaging Scanner. A phosphoimager can also be used for such quantification.
# as §1, §2
smiles,measurement,setting,value
"CC(=O)Oc1ccccc1C(=O)O [Aspirin, aspirin]",% inhibition of COX-2 specific activity,COX-2,> 75%
same,effect on nitrite accumulation / NOS expression in OA cartilage,OA-NOS [1],blocked iNOS expression in OA cartilage
same,rank order of inhibition of spontaneous nitrite accumulation,OA-NOS [1],aspirin>indomethacin>sodium salicylate
same,inhibition at 2000 µM,"OA-NOS [1]; 2 mM, human osteoarthritic cartilage ex vivo, read-out: suppression of accumulation of nitrites",≥ 50%
same,"Nitrite released, Nitrite","iNOS [2]; 1 mM, LPS 100 ng/ml, 16-18 h",26.6 ± 4.3 µM
same,"Nitrite released, Nitrite","iNOS [2]; 2 mM, LPS 100 ng/ml, 16-18 h",22.9 ± 5.3 µM
same,"Nitrite released, Nitrite","iNOS [2]; 3 mM, LPS 100 ng/ml, 16-18 h",20.3 ± 3.9 µM
same,further inhibition of nitrite accumulation above that observed at 3 mM,iNOS [2]; 5 mM,50%
same,further inhibition of nitrite accumulation above that observed at 3 mM,iNOS [2]; 10 mM,80%
same,inhibition at 1000 µM,"iNOS [2]; Mus musculus, RAW264.7, read-out: Nitrite released, % inhibition, 1 mM, LPS 100 ng/ml, 16-18 h",10%
same,inhibition at 2000 µM,"iNOS [2]; Mus musculus, RAW264.7, read-out: Nitrite released, % inhibition, 2 mM, LPS-stimulated, 16-18 h",22%
same,inhibition at 3000 µM,"iNOS [2]; Mus musculus, RAW264.7, read-out: Nitrite released, % inhibition, 3 mM, LPS 100 ng/ml, 16-18 h",32%
same,inhibition of iNOS catalytic activity in cell-free extracts,iNOS [3]; 0.1 mM,10-12%
same,inhibition of iNOS catalytic activity in cell-free extracts (specific activity in in vitro assay),iNOS [3]; 1 mM,~ 45% and 45-68%
same,activation of NF-κB,"NF-κB; 5-20 mM, suprapharmacological",interfere in the activation of NF-κB
same,NF-κB-dependent transcription,"NF-κB; aspirin 3 mM, sodium salicylate 5 mM, luciferase reporter",inhibit NF-κB-dependent transcription
same,"NF-κB activation, gel shift assays",NF-κB; same concentrations (aspirin 3 mM; sodium salicylate 5 mM),no significant effect on NF-κB activation
same,sensitivity of OA-NOS,OA-NOS [4],blocked; also recorded: shows sensitivity
same,inhibition of iNOS expression in rat chondrosarcomas,"iNOS [5]; 72 h, added 1 h prior to cytokines",~ 57%
same,effect on iNOS in rat chondrosarcomas,"iNOS [5]; LPS/cytokine-stimulated, L-NMMA 500 μM, indomethacin 20 μM",significant inhibition of iNOS
same,acetylation of iNOS,iNOS [6],shows acetylation of iNOS
same,COX inhibition,COX,an effective inhibitor of COX
same,cyclooxygenase and peroxidase activity of COX,COX,inactivates the cyclooxygenase and not the peroxidase activity
same,Specific activity of iNOS,iNOS [7]; 1 mM,271.7 ± 17.2 pmol/min/mg protein
same,Specific activity of iNOS,iNOS [7]; 2 mM,231.3 ± 29.8 pmol/min/mg protein
same,Specific activity of iNOS,iNOS [7]; 3 mM,162.3 ± 25.9 pmol/min/mg protein
same,"Specific activity, % inhibition","iNOS [7]; 3 mM, cell-free extracts, 16 h",47%
same,inhibition at 3000 µM,"iNOS [7]; Mus musculus, RAW264.7, 16 h, read-out: Specific activity, % inhibition, 3 mM, cell-free extracts, 16 h",48%
same,IC50,"iNOS [7]; Mus musculus, RAW264.7, read-out: IC50, specific enzyme activity of iNOS",3000 µM
same,inhibition at 1000 µM,"iNOS [7]; Mus musculus, RAW264.7, read-out: Specific activity, % inhibition, 1 mM",12%
same,inhibition at 2000 µM,"iNOS [7]; Mus musculus, RAW264.7, read-out: Specific activity, % inhibition, 2 mM",25%
